Results reported in patent US12714696B2, “Low dose fluralaner compositions for protection against parasitic invertebrate pest” (VIRBAC, priority 2019, dated 2026).

Experiments:
[1] = cited from earlier work
[2] = plasma pK in dogs; fluralaner 56 mg/kg; cited from earlier work
[3] = system: Rhipicephalus sanguineus; experiment: Efficacy against ticks on dogs, oral 250/35/600 μg/kg study; assay type: in vivo; conditions: for Percentage efficacy using geometric mean, live ticks / live ticks, geometric mean, Group 2: oral 250/35/600 μg/kg regimen, dogs
Procedure: The second objective is to investigate the pharmacodynamics between the fluralaner plasmatic dose and the effectiveness against ticks. • IVP: Investigational Veterinary Product, is pure Fluralaner+DMSO (250 μg/kg on Days 0 to 3 (0.25 mL/kg), then 35 μg/kg on Days 4 to 9 (0.35 mL/kg), then 600 μg/kg on Day 11) • Control product is DMSO (0.25 mL/kg on Days 0 to 3, then 0.35 mL/kg on Days 4 to 9)
Dogs were infested with approximately 50 (±4) viable, adult, unfed R. sanguineus ticks on Days 1, 3, 5, 8, 10, 12, 16, 22, 26 and 30 to assess efficacy. Ticks will be removed and counted on Days 3, 5, 7 (48 hours±2 hours after infestation) and 9, 11, 13, 17, […], 27, 32 (24 hours±2 hours after infestation). Dogs were also infested with approximately 100 (±8) viable, adult, C. felis fleas on Day −6 (±1 day) for randomisation purposes and on Day 2 to assess efficacy. Fleas will be removed and counted on Days −5 (+1 day) and 3 (24 hours±2 hours after infestation).
(§1) The efficacy against ticks and fleas were calculated for the study groups at each assessment day according to the formulas given below.
Efficacy calculations based on geometric mean values were, however, also reported on. Such calculations were based on the geometric mean values of the tick or flea (count+1) data. One (1) was subsequently subtracted from the result to obtain a meaningful value for the geometric mean of each group.
(§2) Efficacy was calculated as follows: Efficacy (%)=100×(Mc−Mt)/Mc, where: • Mc=Mean number of live ticks (categories 1 to 2) or live fleas on dogs in the negative control group (group 1) at a specific time point. • Mt=Mean number of live ticks (categories 1 to 2) or live fleas on dogs in the IVP group (group 2) • at a specific time point.

[4] = system: Rhipicephalus sanguineus; experiment: as above; assay type: in vivo
[5] = system: C. felis fleas; experiment: Efficacy against fleas on dogs, oral 35 μg/kg study; assay type: in vivo
Procedure: The second objective was to investigate the pharmacodynamics between the fluralaner plasmatic dose and the effectiveness against fleas. • IVP: Investigational Veterinary Product, is pure Fluralaner+DMSO (35 μg/kg on Days 0 to 3 (0.35 mL/kg)) • Control product is DMSO (0.35 mL/kg on Days 0 to 3)
On Days 0, 1, 2 and 3, all dogs assigned to group 2 received the Investigational Veterinary Product. On Days 0 to 3 all dogs in group 1 received the control product at a volume equal to the dogs in group 2. Dogs assigned to group 1 received the control product and served as Placebo controls. The quantity of Investigational Veterinary Product and control product administered was calculated according to the dog's individual body weight measured on Day −1.
Dogs were infested with approximately 100 (±8) viable, adult, C. felis fleas on Day −6 for randomisation purposes and on Days 1, 2 and 3 to assess efficacy. Fleas were removed and counted on Days −5, 2, 3 and 4 (24 hours±2 hours after infestation). Dogs were also infested with approximately 50 (±4) viable, adult, unfed R. sanguineus ticks on Day 4 to assess acaricidal efficacy. Ticks will be removed and counted on Day 5 (24 hours±2 hours after infestation).
as §1, §2

For `Cc1cc(C2=NOC(c3cc(Cl)cc(Cl)c3)(C(F)(F)F)C2)ccc1C(=O)NCC(=O)NCC(F)(F)F` (stereo not drawn) [fluralaner, Fluralaner], the hepatic clearance ([1]; dogs and cats) is given as “low hepatic clearance”, the “AUC in cats relative to dogs” value ([1]; topical and iv, 12.5 to 50 mg/kg dogs, 20 to 80 mg/kg cats) is given as “about half the AUC in dogs” and the “interference between fluralaner and ivermectin” value [2] is given as “absence of interference”. For the same compound, the “Percentage efficacy using geometric mean, live ticks” value (“Percentage efficacy” below) ([3]; Day 3) was 100, the “live ticks, geometric mean, Group 2” value ([3]; Day 3) was 0.0 and the “Percentage efficacy” value ([3]; Day 5) was 100. The “live ticks, geometric mean, Group 2” value ([3]; Day 5) was 0.0, the “Percentage efficacy” value ([3]; Day 7) was 100 and the “live ticks, geometric mean, Group 2” value ([3]; Day 7) was 0.0. For the same compound, the “Percentage efficacy” value ([3]; Day 9) was 47.3, the “live ticks, geometric mean, Group 2” value ([3]; Day 9) was 11.8 and the “Percentage efficacy” value ([3]; Day 11) was 77.8. The “live ticks, geometric mean, Group 2” value ([3]; Day 11) was 7.8, the “Percentage efficacy” value ([3]; Day 13) was 85.0 and the “live ticks, geometric mean, Group 2” value ([3]; Day 13) was 4.5. The “Percentage efficacy” value ([3]; Day 17) was 80.8, the “live ticks, geometric mean, Group 2” value ([3]; Day 17) was 5.1 and the “Percentage efficacy” value ([3]; Day 23) was 46.1. For the same compound, the “Percentage efficacy” value ([3]; Day 27) was 78.9, the “live ticks, geometric mean, Group 2” value ([3]; Day 27) was 6.8 and the “Percentage efficacy” value ([3]; Day 31) was 56.1. For the same compound, the “efficacy against ticks from the first day after treatment” value ([3]; infestation at D1, first measurement at D3) was “present”, the efficacy against ticks ([3]; period during the first four doses of 250 μg/kg per day and the following three doses of 35 μg/kg per day) was 100% and the “live ticks, geometric mean, Group 2” value ([4]; Day 23, oral 250/35/600 μg/kg regimen) was 16.2. The “live ticks, geometric mean, Group 2” value ([4]; Day 31, oral 250/35/600 μg/kg regimen) was 13.3, the efficacy against fleas ([5]; 24 h after the first three doses of 35 μg/kg per day, dogs) was 100% and the efficacy against fleas ([5]; 24 h after the first two doses of 35 μg/kg per day, dogs) was 99.6%. For the same compound, the efficacy against fleas ([5]; after the fourth and final dose of 35 μg/kg per day, dogs) was 99.8%, the “efficacy against fleas from 24 hours after administration” value ([5]; infestation at D1, first measurement at D2, whatever the dose) was “high efficacy” and the efficacy against fleas ([5]; period Day 2 to Day 4, 24 hours after infestation, oral 35 μg/kg Days 0-3, dogs) was 100%.
